Key:
Microsomal stability [1] = conditions: for microsomal CLint at 2 μM / microsomal CLint at 0.5 h, 2 µM: human, microsomes, pH 7.4; for Microsomal CLint Human: human microsomes, 2 μM compound
Microsomal stability [2] = conditions: for Microsomal CLint Rat: rat microsomes, 2 μM compound
LIMK1 = LIMK1 (Homo sapiens, UniProt P53667); assay: RapidFire mass spectrometry kinase assay (cofilin phosphorylation); type: biochemical; conditions: non-phosphorylated LIMK1; mean ± SEM; read-out: Enzymatic (RapidFire) pIC50 LIMK1 (converted)
LIMK2 = LIMK2 (Homo sapiens, UniProt P53671); assay: as above; type: biochemical; conditions: non-phosphorylated LIMK2; mean ± SEM; read-out: Enzymatic (RapidFire) pIC50 LIMK2 (converted)
LIMK2, sequence (P53671 whole entry): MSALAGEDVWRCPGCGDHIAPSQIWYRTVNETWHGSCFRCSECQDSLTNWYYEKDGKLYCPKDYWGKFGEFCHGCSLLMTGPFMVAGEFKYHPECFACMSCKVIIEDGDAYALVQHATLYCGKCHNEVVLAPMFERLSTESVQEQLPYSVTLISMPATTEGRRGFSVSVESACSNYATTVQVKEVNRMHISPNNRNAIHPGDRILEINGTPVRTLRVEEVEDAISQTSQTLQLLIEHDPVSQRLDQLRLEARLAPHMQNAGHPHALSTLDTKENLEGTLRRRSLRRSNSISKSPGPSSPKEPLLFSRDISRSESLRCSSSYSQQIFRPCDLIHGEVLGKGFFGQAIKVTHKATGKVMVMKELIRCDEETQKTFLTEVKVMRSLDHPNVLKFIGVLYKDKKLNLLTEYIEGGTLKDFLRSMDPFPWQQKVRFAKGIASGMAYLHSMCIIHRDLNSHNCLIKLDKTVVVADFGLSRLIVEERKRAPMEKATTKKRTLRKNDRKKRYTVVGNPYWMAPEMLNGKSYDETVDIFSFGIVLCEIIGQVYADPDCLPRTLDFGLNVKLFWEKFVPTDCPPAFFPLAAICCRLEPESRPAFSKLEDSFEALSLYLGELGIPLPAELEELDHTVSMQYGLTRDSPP

LIMK1, sequence (P53667 whole entry): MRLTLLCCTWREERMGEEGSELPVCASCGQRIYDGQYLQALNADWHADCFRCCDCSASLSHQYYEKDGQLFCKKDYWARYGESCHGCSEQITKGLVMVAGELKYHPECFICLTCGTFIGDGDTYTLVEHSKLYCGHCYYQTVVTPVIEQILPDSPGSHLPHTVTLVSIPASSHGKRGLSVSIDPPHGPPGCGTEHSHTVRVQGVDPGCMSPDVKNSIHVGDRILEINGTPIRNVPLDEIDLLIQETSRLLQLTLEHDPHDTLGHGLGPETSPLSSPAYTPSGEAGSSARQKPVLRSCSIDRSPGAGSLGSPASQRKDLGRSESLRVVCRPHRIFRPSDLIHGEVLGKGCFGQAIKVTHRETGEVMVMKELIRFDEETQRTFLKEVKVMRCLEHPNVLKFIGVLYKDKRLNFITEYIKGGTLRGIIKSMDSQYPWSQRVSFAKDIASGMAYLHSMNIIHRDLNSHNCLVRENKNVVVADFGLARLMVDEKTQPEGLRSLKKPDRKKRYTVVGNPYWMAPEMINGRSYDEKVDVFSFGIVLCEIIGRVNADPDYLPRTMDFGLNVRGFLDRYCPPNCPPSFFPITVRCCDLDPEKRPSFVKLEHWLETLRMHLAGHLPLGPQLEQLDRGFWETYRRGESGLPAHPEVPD

Compound | microsomal CLint at 2 μM (Microsomal stability [1]) [µL/min/mg] | Microsomal CLint Rat (Microsomal stability [2]) | IC50 (LIMK1) [nM] | microsomal CLint at 2 μM (Microsomal stability [2]; rat, microsomes, pH 7.4) [µL/min/mg] | IC50 (LIMK2) [nM] | Microsomal CLint Human (Microsomal stability [1]) | microsomal CLint at 0.5 h, 2 µM (Microsomal stability [1]) [µL/min/mg] | microsomal CLint at 0.5 h, 2 µM (Microsomal stability [2]; rat, microsomes, pH 7.4) [µL/min/mg]
CCN(Cc1ccccc1)C(=O)c1ccc(S(=O)(=O)Nc2ccccc2)cc1 [Compound 52, N-Benzyl-N-ethyl-4-(N-phenylsulfamoyl)benzamide] | 720 | Rapid | – | – | – | – | – | –
O=C(c1ccc(S(=O)(=O)Nc2ccccc2)cc1)N(Cc1ccccc1)CC1(Cn2ccnc2)CC1 [Compound 60, N-Benzyl-N-[[1-(imidazol-1-ylmethyl)cyclopropyl]methyl]-4-(phenylsulfamoyl)benzamide] | 109 | – | 407 | 395 | 19.1 | – | – | –
CCCCN(Cc1ccc(F)cc1)C(=O)c1ccc(S(=O)(=O)Nc2ccccc2)cc1 [Compound 39, N-Butyl-N-(4-fluorobenzyl)-4-(N-phenylsulfamoyl)benzamide] | 409 | – | 195 | 942 | – | – | – | –
CCCCN(Cc1cccnc1)C(=O)c1ccc(S(=O)(=O)Nc2ccccc2)cc1 [Compound 44, N-Butyl-4-(N-phenylsulfamoyl)-N-(pyridin-3-ylmethyl)benzamide] | 234 | Rapid | 8130 | – | 1510 | – | – | –
O=C(c1ccc(S(=O)(=O)Nc2ccccc2)cc1)N(CCO)Cc1ccccc1 [Compound 53, N-Benzyl-N-(2-hydroxyethyl)-4-(N-phenylsulfamoyl)benzamide] | 76 | Rapid | 209 | – | – | – | – | –
CCCCN(Cc1ccccc1)C(=O)c1ccc(S(=O)(=O)Nc2ccccc2)cc1F [Compound 21, N-Benzyl-N-butyl-2-fluoro-4-(phenylsulfamoyl)benzamide] | – | – | 407 | – | 30.2 | – | – | –
CCCCN(Cc1cccc(OC)c1)C(=O)c1ccc(S(=O)(=O)Nc2ccccc2)cc1 [Compound 41, N-Butyl-N-(3-methoxybenzyl)-4-(N-phenylsulfamoyl)benzamide] | 556 | – | 1620 | 783 | 224 | – | – | –
O=C(c1ccc(S(=O)(=O)Nc2ccccc2)cc1)N(Cc1ccc2ncoc2c1)CC1CC1 [Compound 62, N-(1,3-Benzoxazol-6-ylmethyl)-N-(cyclopropylmethyl)-4-(phenylsulfamoyl)benzamide] | 263 | Rapid | 95.5 | – | 6.46 | – | – | –
O=C(c1ccc(S(=O)(=O)Nc2ccccc2)cc1)N(Cc1ccccc1)C1CC1 [Compound 58, N-Benzyl-N-cyclopropyl-4-(phenylsulfamoyl)benzamide] | 396 | Rapid | 1070 | – | 46.8 | – | – | –
CN(C)CCNc1ccc(CN(CC2CC2)C(=O)c2ccc(S(=O)(=O)Nc3ccccc3)cc2)nc1 [Compound 78, N-(Cyclopropylmethyl)-N-[[5-[2-(dimethylamino)ethylamino]-2-pyridyl]methyl]-4-(phenylsulfamoyl)benzamide] | 23 | – | – | 31 | – | – | – | –
CCCCN(Cc1ccco1)C(=O)c1ccc(S(=O)(=O)Nc2ccccc2)cc1 [Compound 46, N-Butyl-N-(furan-2-ylmethyl)-4-(N-phenylsulfamoyl)benzamide] | – | Rapid | 347 | – | – | Rapid | – | –
O=C(c1ccc(S(=O)(=O)Nc2ccccc2)cc1)N(CCCn1ccnc1)Cc1ccccc1 [Compound 56, N-Benzyl-N-(3-imidazol-1-ylpropyl)-4-(phenylsulfamoyl)benzamide] | 80 | – | 347 | 158 | 18.2 | – | – | –
CCCCN(Cc1ccccc1)C(=O)c1coc(S(=O)(=O)Nc2ccccc2)c1 [Compound 30, N-Benzyl-N-butyl-5-(phenylsulfamoyl)furan-3-carboxamide] | – | – | 6920 | – | 933 | – | – | –
O=C(c1ccc(S(=O)(=O)Nc2ccccc2)cc1)N(Cc1ccccc1)CC1CC1 [Compound 57, N-Benzyl-N-(cyclopropylmethyl)-4-(phenylsulfamoyl)benzamide] | – | Rapid | – | – | – | – | 495 | –
C[C@@H](c1ccccc1)N(CC1CC1)C(=O)c1ccc(S(=O)(=O)Nc2ccccc2)cc1 [Compound 64, (S)-N-(Cyclopropylmethyl)-N-(1-phenylethyl)-4-(N-phenylsulfamoyl)benzamide] | 774 | Rapid | 240 | – | 100 | – | – | –
Nc1ccc(CN(CC2CC2)C(=O)c2ccc(S(=O)(=O)Nc3ccccc3)cc2)nc1 [Compound 72, N-[(5-Amino-2-pyridyl)methyl]-N-(cyclopropylmethyl)-4-(phenylsulfamoyl)benzamide] | – | – | – | – | – | – | 36 | 431
CCCCN(Cc1ccccc1)C(=O)c1ccc(S(=O)(=O)Nc2cnoc2)cc1 [Compound 36, N-Benzyl-N-butyl-4-(isoxazol-4-ylsulfamoyl)benzamide] | – | – | > 10000 | – | 6610 | – | – | –

Compound | microsomal CLint at 2 μM (Microsomal stability [1]) [µL/min/mg] | Microsomal CLint Rat (Microsomal stability [2]) | IC50 (LIMK1) [nM] | microsomal CLint at 2 μM (Microsomal stability [2]; rat, microsomes, pH 7.4) [µL/min/mg] | IC50 (LIMK2) [nM] | Microsomal CLint Human (Microsomal stability [1]) | microsomal CLint at 0.5 h, 2 µM (Microsomal stability [1]) [µL/min/mg] | microsomal CLint at 0.5 h, 2 µM (Microsomal stability [2]; rat, microsomes, pH 7.4) [µL/min/mg]
CC(C)CN(Cc1ccccc1)C(=O)c1ccc(S(=O)(=O)Nc2ccccc2)cc1 [Compound 59, N-Benzyl-N-isobutyl-4-(phenylsulfamoyl)benzamide] | – | Rapid | 1020 | – | 20.9 | Rapid | – | –
CCCCN(Cc1ccccc1)C(=O)c1cnc(S(=O)(=O)Nc2ccccc2)nc1 [Compound 24, N-Benzyl-N-butyl-2-(phenylsulfamoyl)pyrimidine-5-carboxamide] | – | – | 891 | – | 1740 | – | – | –
CCCCN(Cc1ccccc1)C(=O)c1ccc(S(=O)(=O)Nc2ccncc2)cc1 [Compound 35, N-Benzyl-N-butyl-4-(N-(pyridin-4-yl)sulfamoyl)benzamide] | – | – | > 10000 | – | > 10000 | – | – | –
CCCCN(Cc1ccccc1)C(=O)c1ccc(S(=O)(=O)Nc2ccccc2)cn1 [Compound 23, N-Benzyl-N-butyl-5-(phenylsulfamoyl)pyridine-2-carboxamide] | – | – | 1350 | – | 166 | – | – | –
CCCCN(Cc1ccc(CCC(=O)O)cc1)C(=O)c1ccc(S(=O)(=O)Nc2ccccc2)cc1 [Compound 48, 3-(4-((N-Butyl-4-(N-phenylsulfamoyl)benzamido)methyl)phenyl)propanoic acid] | 15 | – | 166 | 18 | 20.9 | – | – | –
CCCCN(Cc1ccccc1)C(=O)c1ccc(S(=O)(=O)NC2CCC2)cc1 [Compound 37, N-Benzyl-N-butyl-4-(N-cyclobutylsulfamoyl)benzamide] | – | – | 4470 | – | 372 | – | – | –
CCCCN(Cc1ccccc1OC)C(=O)c1ccc(S(=O)(=O)Nc2ccccc2)cc1 [Compound 42, N-Butyl-N-(2-methoxybenzyl)-4-(N-phenylsulfamoyl)benzamide] | 812 | – | 2570 | 827 | 1170 | – | – | –
CCCCN(CC1CCCO1)C(=O)c1ccc(S(=O)(=O)Nc2ccccc2)cc1 (centres unmarked) [Compound 47, N-Butyl-4-(N-phenylsulfamoyl)-N-((tetrahydrofuran-2-yl)methyl)benzamide] | 427 | Rapid | > 10000 | – | > 10000 | – | – | –
O=C(c1ccc(S(=O)(=O)Nc2ccccc2)cc1)N(Cc1ccc(Br)cn1)CC1CC1 [Compound 63, N-[(5-Bromo-2-pyridyl)methyl]-N-(cyclopropylmethyl)-4-(phenylsulfamoyl)benzamide] | 307 | Rapid | 19.1 | – | 25.7 | – | – | –
C[C@H](c1ccccc1)N(CC1CC1)C(=O)c1ccc(S(=O)(=O)Nc2ccccc2)cc1 [Compound 65, (R)-N-(Cyclopropylmethyl)-N-(1-phenylethyl)-4-(N-phenylsulfamoyl)benzamide] | 419 | Rapid | 4900 | – | 1070 | – | – | –
CCN(Cc1ccc(NCCO)cn1)C(=O)c1ccc(S(=O)(=O)Nc2ccccc2)cc1 [Compound 80, N-Ethyl-N-[[5-(2-hydroxyethylamino)-2-pyridyl]methyl]-4-(phenylsulfamoyl)benzamide] | 12 | – | – | 51 | – | – | – | –
CCCCN(Cc1ccccn1)C(=O)c1ccc(S(=O)(=O)Nc2ccccc2)cc1 [Compound 45, N-Butyl-4-(N-phenylsulfamoyl)-N-(pyridin-2-ylmethyl)benzamide] | 256 | Rapid | 1290 | – | 51.3 | – | – | –
O=C(c1ccc(S(=O)(=O)Nc2ccccc2)cc1)N(Cc1ccc2[nH]ccc2c1)CC1CC1 [Compound 61, N-(Cyclopropylmethyl)-N-(1H-indol-5-ylmethyl)-4-(phenylsulfamoyl)benzamide] | 288 | – | 11 | 802 | 11 | – | – | –
CCCCN(Cc1ccccc1)C(=O)c1ccc(S(=O)(=O)Nc2ccccc2)cc1C [Compound 22, N-Benzyl-N-butyl-2-methyl-4-(phenylsulfamoyl)benzamide] | – | – | 2140 | – | 148 | – | – | –
CCCCN(Cc1ccccc1)C(=O)c1ccc(S(=O)(=O)NC)cc1 [Compound 34, N-Benzyl-N-butyl-4-(N-methylsulfamoyl)benzamide] | – | – | > 10000 | – | > 10000 | – | – | –
CCCCN(Cc1ccccc1)C(=O)c1ccc(S(=O)(=O)Cc2ccccc2)cc1 [Compound 29, N-Benzyl-4-benzylsulfonyl-N-butyl-benzamide] | – | – | > 10000 | – | 468 | – | – | –
CCCCN(Cc1ccccc1)C(=O)c1ccc(S(=O)(=O)NC2COC2)cc1 [Compound 38, N-Benzyl-N-butyl-4-(N-(oxetan-3-yl)sulfamoyl)benzamide] | – | – | > 10000 | – | > 10000 | – | – | –

Reference: PMC11726654, “Discovery of MDI-114215: A Potent and Selective LIMK Inhibitor To Treat Fragile X Syndrome” (Journal of Medicinal Chemistry, 2024)
